Assay results taken from patent publication US20060286182A1, “Synergistic cinnamon combinations and methods for enhancing insulin activity” (Abeille Pharmaceuticals, Inc., priority 2005, published 2006).

Tested on: 3T3-L1 adipocytes
Experiment: Oil Red O staining of triglyceride content (lipogenesis) in differentiating 3T3-L1 adipocytes
Format: cell-based, murine
Settings: for increase in triglyceride content (lipogenic/adipogenic increase) relative to the solvent control: 50 μg test material/mL, Day 0 to Day 7 of differentiation
Description: The Model—The 3T3-L1 murine fibroblast model is used to study the potential effects of compounds on adipocyte differentiation and adipogenesis.
As preadipocytes, 3T3-L1 cells have a fibroblastic appearance. They replicate in culture until they form a confluent monolayer, after which cell-cell contact triggers Go/G1 growth arrest. Terminal differentiation of 3T3-L1 cells to adipocytes depends on proliferation of both pre- and postconfluent preadipocytes. Subsequent stimulation with 3-isobutyl-1-methylxanthane, dexamethasone, and high dose of insulin (MDI) for two days prompts these cells to undergo postconfluent mitotic clonal expansion, exit the cell cycle, and begin to express adipocyte-specific genes. Approximately five days after induction of differentiation, more than 90% of the cells display the characteristic lipid-filled adipocyte phenotype.
Cell culture and Treatment—The murine fibroblast cell line 3T3-L1 was obtained from the American Type Culture Collection (Manasus, Va.) and sub-cultured according to instructions from the supplier. For experiments, cells were cultured in DMEM containing 10% FBS-HI, with added 50 units penicillin/mL and 50 μg streptomycin/mL, and maintained in log phase prior to experimental setup. Cells were grown in a 5% CO2 humidified incubator at 37° C. Components of the pre-confluent medium included (1) 10% FBS/DMEM containing 4.5 g glucose/L; (2) 50 U/mL penicillin; and (3) 50 μg/mL streptomycin. Growth medium was made by adding 50 mL of heat inactivated FBS and 5 mL of penicillin/streptomycin to 500 mL DMEM. This medium was stored at 4° C. Before use, the medium was warmed to 37° C. in a water bath.
3T3-T1 cells were seeded at an initial density of about 4×10^4 cells/cm^2 in 24-well plates. For two days, the cells were allowed to grow to reach confluence. Following confluence, the cells were forced to differentiate into adipocytes by the addition of differentiation medium; this medium consisted of (1) 10% FBS/DMEM (high glucose); (2) 0.5 mM methylisobutylxanthine; (3) 0.5 μM dexamethasone and (4) 10 Hg/mL insulin. After three days, the medium was changed to post-differentiation medium consisting of 10 μg/mL insulin in 10% FBS/DMEM.
Test material was added in dimethyl sulfoxide at Day 0 of differentiation and every two days throughout the maturation phase (Day 7). Whenever fresh media was added, fresh test material was also added. As a positive control, troglitazone was added to achieve a final concentration of 4.4 μg/mL (10 μM). Metformin, Sample A and the metformin/Sample A combinations of 1:10, 1:5 and 1:2.5 were all tested at 50 μg test material/mL. Metformin, Sample B and the metformin/Sample B combination of 1:10 were all tested at 50 μg test material/mL.

Row | SMILES | increase in triglyceride content (lipogenic/adipogenic increase) relative to the solvent control | increase in triglyceride content (lipogenic/adipogenic increase) relative to the solvent control (listed as glipizide) | increase in triglyceride content of the 3T3-L1 cells (positive control, 4.4 μg/mL (10 μM), Day 0 to Day 7, relative to solvent control) [%]
1 | Cc1cnc(C(=O)NCCc2ccc(S(=O)(=O)NC(=O)NC3CCCCC3)cc2)cn1 [Glipizide] | 40% | increased triglyceride biosynthesis | –
2 | Cc1c(C)c2c(c(C)c1O)CCC(C)(COc1ccc(CC3SC(=O)NC3=O)cc1)O2 (stereo not shown) [Troglitazone, troglitazone] | – | – | 54
3 | CN(C)C(=N)N=C(N)N [metformin] | four | – | –
